# pIC50: −log10 of the molar value. Entries after “also recorded” stand apart in the source; their conditions may differ. Read-outs that look alike come from different tables or passages of the source. Ends that are not written are not given here.
# Tests used:
# [1] = test system: mouse embryonic fibroblasts (MEFs); test: Killing of MEFs after retroviral expression, viability 24 hours after infection; assay type: cell-based; conditions: retroviral expression, 24 hours after infection
# Experimental: FIG. 7 is a graphical representation showing that BH3-only proteins that bind selective targets have weak killing activity. (A) The affinities of BH3-only peptides for pro-survival proteins (tabulated in FIG. 3A) were inversely plotted to facilitate comparison of the patterns of BH3 binding. […] Immortalized 3T9 MEFs were infected with retroviruses expressing only GFP (control), or one of the BH3-only proteins and GFP. The viability of the infected (GFP^+ve) cells was determined by PI exclusion 24 hours after infection. The histograms represent means±1SD of at least 3 experiments. […] The filter was probed with a rat monoclonal anti-FLAG antibody. *Degradation product of Mcl-1. […] Viability of MEFs infected with retroviruses encoding the indicated proteins (GFP^+ve) was analyzed 24 hours after infection. The histograms represent means±1SD of at least 3 experiments. (E) Long-term survival of MEFs infected with BH3 expressing retroviruses. One hundred retrovirally-infected cells were plated and the absolute number of GFP^+ve colonies formed after 6 days scored. […] The data represent the average number of GFP^+ve colonies formed±1SD from at least 3 experiments. To assess the biological relevance of the selective binding, retroviral delivery was used to compare the ability of different BH3-only proteins to kill wild-type mouse embryonic fibroblasts (MEFs). To monitor expression of the introduced gene, a vector (pMIG) in which its expression is coupled via an internal ribosomal entry site (IRES) to that of green fluorescent protein (GFP) was used (Van Parijs et al., Immunity 11:281-288, 1999). The cells were efficiently infected (>90%) and the introduced BH3-only proteins were comparably expressed. Viability of the infected (GFP^+ve) cells was scored 24 hours after infection (FIGS. 7A, 7B) and in long-term colony assays (FIG. 7E). […] Thus, the neutralization of Mcl-1 by Noxa should be complemented by co-expression of a BadBH3 to neutralize Bcl-2 and Bcl-xL in MEFs (FIG. 8A).
# [2] = test system: mouse embryonic fibroblasts (MEFs); test: Long-term colony assay of retrovirally infected MEFs; assay type: cell-based; conditions: colonies after 6 days
# Experimental: FIG. 7 is a graphical representation showing that BH3-only proteins that bind selective targets have weak killing activity. (A) The affinities of BH3-only peptides for pro-survival proteins (tabulated in FIG. 3A) were inversely plotted to facilitate comparison of the patterns of BH3 binding. […] Immortalized 3T9 MEFs were infected with retroviruses expressing only GFP (control), or one of the BH3-only proteins and GFP. The viability of the infected (GFP^+ve) cells was determined by PI exclusion 24 hours after infection. The histograms represent means±1SD of at least 3 experiments. […] The filter was probed with a rat monoclonal anti-FLAG antibody. *Degradation product of Mcl-1. […] Viability of MEFs infected with retroviruses encoding the indicated proteins (GFP^+ve) was analyzed 24 hours after infection. The histograms represent means±1SD of at least 3 experiments. (E) Long-term survival of MEFs infected with BH3 expressing retroviruses. One hundred retrovirally-infected cells were plated and the absolute number of GFP^+ve colonies formed after 6 days scored. […] The data represent the average number of GFP^+ve colonies formed±1SD from at least 3 experiments. […] Viability of the infected (GFP^+ve) cells was scored 24 hours after infection (FIGS. 7A, 7B) and in long-term colony assays (FIG. 7E).
# FLAG-tagged Mcl-1 = target: T1, FLAG-tagged Mcl-1 (Mus musculus, UniProt P97287); test: Co-immunoprecipitation in transfected 293T cells; assay type: binding; conditions: tagged full-length proteins
# T1 construct: expressed in transfected cells; host or cells: HEK293T
# From the text: Equivalent ^35S-labeled lysates harvested from 293T cells were immunoprecipitated with antibodies to the HA, FLAG (FL) or control (C) tags.
# The maintenance, transfection and metabolic labeling of the human embryonic kidney (HEK) 293T cells with ^35S-methionine/cysteine (NEN) as well as co-immunoprecipitation have been described (Huang et al., Supra; Moriishi et al., Proc Natl Acad Sci USA 96:9683-9688, 1999; O'Conner et al., Supra). Briefly, equivalent TCA-precipitable lysates were immunoprecipiated using the mouse monoclonal antibodies to HA (HA.11; CRP), FLAG (M2; Sigma) and control Glu-Glu (CRP) tags. The proteins were resolved by SDS:PAGE, transferred onto nitrocellulose membranes and detected by fluorography (Amplify; Amersham Biosciences).
# To verify the in vitro findings, interactions of selected pairs of the full-length N-terminally tagged proteins were investigated in mammalian cells by co-immunoprecipitation. […] The cells were metabolically labeled with ^35S-methionine/cysteine to permit semi-quantitative assessment of any interaction between co-associating radiolabeled proteins.
# To verify the in vitro findings, selected pairs of the full-length N-terminally tagged proteins associated in mammalian cells were investigated by co-immunoprecipitation. […] The cells were metabolically labeled with ^35S-methionine/cysteine to permit semi-quantitative assessment of any interaction between the labeled proteins or interaction was gauged by the more sensitive western blotting.
# Bcl-w = target: T2, Bcl-w (Homo sapiens, UniProt Q92843, A128E/C29S); test: Solution competition assay (competition with immobilized wtBimBH3, biosensor); assay type: binding
# T2 construct: human Bcl-w (Acc. no. NP_004041; residues 1-164; C29S A128E); made in house
# T2 sequence (Q92843 1-164 C29S/A128E): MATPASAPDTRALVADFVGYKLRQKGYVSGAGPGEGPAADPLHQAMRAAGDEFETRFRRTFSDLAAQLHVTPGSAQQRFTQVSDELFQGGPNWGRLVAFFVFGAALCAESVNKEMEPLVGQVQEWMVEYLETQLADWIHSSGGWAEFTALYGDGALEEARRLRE
# Experimental: (§1) The relative affinities of BH3 peptides for pro-survival Bcl-2 proteins were assessed by comparing their abilities to compete with immobilized ^wtBimBH3 peptide for binding to Bcl-2-like proteins (Wilson-Annan et al., Supra). A fixed sub-saturating amount (10 nM) of a pro-survival Bcl-2 protein was incubated with varying amounts of competitor BH3 peptide in HBS for >2 hr on ice. The mixtures were then injected over a sensor chip containing a channel bearing mouse ^wtBimBH3 and a control channel with mouse ^4EBimBH3 immobilized. The baseline response (control channel) was subtracted to obtain the absolute binding response. Taking the response for the pro-survival protein alone as the maximal response (100%), the relative residual binding (%) in the presence of increasing amounts of competitor peptides at a given injection time point (430 s) was then calculated. […] Theoretically, IC50=[A]/2+KD, where [A] is the analyte concentration.
# (§2) Some of recombinant proteins (Bcl-2, Bcl-xL, A1) studied contain cysteine residues but the behavior of Bcl-2 or Bcl-xL was not affected by dithiothreitol (DTT).
# (§3) To assess if other BH3 peptides bind pro-survival proteins similarly, we directly compared their binding affinities in solution using a competitive binding assay. In such assays, the quality and absolute quantity of target proteins are less critical than in direct binding, and solution binding precludes the steric hindrance encountered with some immobilized peptides. FIG. 1C illustrates the approach: pre-incubation of Bcl-xL in solution with increasing amounts of BikBH3 reduced its binding to ^wtBimBH3 (FIG. 1D). From the attenuation in binding, the IC50 (competitor peptide concentration that halves binding) of BikBH3 can be calculated (FIG. 1E). As the IC50 values reflect relative binding affinities (see Experimental Procedures), we used this assay to compare the binding affinities of eight BH3 peptides (Table 3) to the five pro-survival proteins. […] Their binding properties fell into several classes (FIG. 2B and FIG. 4). […] Contrary to the prevailing view, the pro-survival proteins also had unique patterns for BH3 binding: Bcl-xL behaved like Bcl-w, with Bcl-2 more distinct, whereas Mcl-1 and A1 formed a separate group (FIG. 2B).
# Bcl-xL = target: T3, Bcl-xL (Homo sapiens, UniProt Q07817); test: as above; assay type: binding
# T3 construct: Human Bcl-xL (Acc. no. NP_612815; residues 1-209); GST (N, cleaved yes); made in house
# Experimental: as §1, §2, §3
# Bcl-2 = target: T4, Bcl-2 (Homo sapiens, UniProt P10415); test: as above; assay type: binding; conditions: Bcl-2, one of 'the others'
# T4 construct: Human Bcl-2 (Acc. no. NP_000624; residues 1-217); made in house
# Experimental: as §1, §2, §3
# Mcl-1 ΔN151 ΔC23 = target: T5, Mcl-1 ΔN151 ΔC23 (Mus musculus, UniProt P97287); test: Direct binding to immobilized BH3 peptide, Biacore biosensor; conditions: BadBH3 or NoxaBH3 immobilized chip
# T5 construct: mouse Mcl-1 (Acc. no. NP_031588; residues 152-308); GST (N, cleaved yes); made in house
# Experimental: (§4) Recombinant human Bcl-xL ΔC24, mouse Mcl-1 ΔN151 ΔC23 and mouse A1 ΔC20 were expressed as GST fusion proteins and cleaved off Glutathione Sepharose columns as described (Day et al., Cell Death Differ 6:1125-1132, 1999; Hinds et al., EMBO J 22:1497-1507, 2003).
# (§5) Affinity measurements were performed at room temperature on a Biacore 3000 biosensor (Biacore) with HBS (10 mM HEPES pH 7.2, 150 mM NaCl, 3.4 mM EDTA, 0.005% Tween 20) as the running buffer. Mouse 26-mer ^wtBimBH3, ^4EBimBH3 mutant, BadBH3, NoxaBH3 or control irrelevant peptides were immobilized onto CM5 sensor chips using amine-coupling chemistry (Wilson-Annan et al., Supra). To assess the binding affinities of pro-survival Bcl-2-like proteins for BimBH3 directly, the proteins were directly injected into the sensor chip at 20 μl/min. Residual bound proteins were desorbed with 50 mM NaOH or 6 M GuHCl (pH 7.2), followed by two washes with running buffer. Binding kinetics were derived from sensorgrams, following subtraction of baseline responses, using BIA evaluation software (version 3, Biacore) (Wilson-Annan et al., Supra).
# (§6) The binding constants of the pro-survival molecules for ^wtBimBH3, immobilized on sensor chip, were determined using biosensor experiments as described in Hinds et al., Supra; Wilson-Annan et al., Supra.
# A1 ΔC20 = target: T6, A1 ΔC20 (Mus musculus, UniProt Q07440); test: as above; conditions: BadBH3 or NoxaBH3 immobilized chip
# T6 construct: mouse A1 (Acc. no. NP_033872; residues 1-152); GST (N, cleaved yes); made in house
# T6 sequence (Q07440 1-152): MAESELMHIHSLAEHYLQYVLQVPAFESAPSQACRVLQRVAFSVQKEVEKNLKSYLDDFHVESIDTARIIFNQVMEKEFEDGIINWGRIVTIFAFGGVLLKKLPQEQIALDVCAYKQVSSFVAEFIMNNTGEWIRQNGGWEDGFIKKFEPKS
# Experimental: as §4, §5, §6
# [3] = test system: pro-survival proteins (Bcl-2, Bcl-xL, Bcl-w, Mcl-1, A1); test: Solution competition assay, statements spanning several pro-survival proteins; assay type: binding, human and mouse; conditions: for binding preference among pro-survival proteins: Bcl-2, Bcl-xL, Bcl-w, Mcl-1, A1
# Experimental: as §1, §2, §3
# T3 sequence (Q07817 1-209): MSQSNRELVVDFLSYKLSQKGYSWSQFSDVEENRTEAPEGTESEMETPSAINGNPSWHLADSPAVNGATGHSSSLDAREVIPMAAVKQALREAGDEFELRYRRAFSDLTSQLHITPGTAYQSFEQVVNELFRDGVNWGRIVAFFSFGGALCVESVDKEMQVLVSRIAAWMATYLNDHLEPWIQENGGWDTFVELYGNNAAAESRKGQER
# T5 sequence (P97287 152-308): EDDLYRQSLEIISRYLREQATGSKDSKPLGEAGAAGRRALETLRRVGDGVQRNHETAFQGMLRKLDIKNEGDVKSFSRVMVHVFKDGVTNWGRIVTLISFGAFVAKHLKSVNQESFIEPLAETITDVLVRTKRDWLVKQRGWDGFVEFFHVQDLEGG
# T1 sequence (P97287 whole entry): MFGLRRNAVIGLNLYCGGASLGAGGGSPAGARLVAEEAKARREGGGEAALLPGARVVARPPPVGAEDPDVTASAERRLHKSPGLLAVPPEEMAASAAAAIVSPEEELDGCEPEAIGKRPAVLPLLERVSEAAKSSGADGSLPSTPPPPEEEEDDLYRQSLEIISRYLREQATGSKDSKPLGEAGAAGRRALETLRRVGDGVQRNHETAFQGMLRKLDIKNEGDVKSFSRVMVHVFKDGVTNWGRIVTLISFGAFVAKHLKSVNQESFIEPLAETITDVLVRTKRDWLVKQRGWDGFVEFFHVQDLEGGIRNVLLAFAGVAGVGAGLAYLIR
# T4 sequence (P10415 1-217): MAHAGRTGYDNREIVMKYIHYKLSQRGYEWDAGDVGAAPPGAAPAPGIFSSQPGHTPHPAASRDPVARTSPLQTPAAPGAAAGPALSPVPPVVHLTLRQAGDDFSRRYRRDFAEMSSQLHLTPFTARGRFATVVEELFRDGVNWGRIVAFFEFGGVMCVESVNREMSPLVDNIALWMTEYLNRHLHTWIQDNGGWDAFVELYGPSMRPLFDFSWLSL
substance,measurement,setting,value
"Bims: Bim isoform, the most potent, expressed from retrovirus in MEFs",killing of MEFs,[1],soon died
same,"long-term survival, GFP+ve colonies",[2],failed to generate colonies; also recorded: No colonies
Puma: full-length human BH3-only protein Puma expressed in cells,interaction with Mcl-1 by co-immunoprecipitation,FLAG-tagged Mcl-1,well
same,killing of MEFs,[1],soon died
same,"long-term survival, GFP+ve colonies",[2],failed to generate colonies
PAELEVECATQLRRFGDKLNFRQKLL [Noxa (18-43)],pIC50,"Bcl-w; Bcl-w, one of 'the others', read-out: IC50",< 4.00
same,pIC50,"Bcl-w; competitor peptide vs immobilized wtBimBH3, read-out: IC50 for Bcl-w",< 4.00
same,pIC50,"Bcl-xL; Bcl-xL, b59-60 do not name the target, values match Table 4, read-out: IC50",< 4.00
same,pIC50,"Bcl-xL; competitor peptide vs immobilized wtBimBH3, read-out: IC50 for Bcl-xL",< 4.00
same,pIC50,Bcl-2,< 4.00
same,binding of Mcl-1 to immobilized peptide,Mcl-1 ΔN151 ΔC23,bound
same,binding of A1 to immobilized peptide,A1 ΔC20,bound
same,binding preference among pro-survival proteins,[3]; listed as Noxa BH3,selectively binds Mcl-1 and A1
same,binding preference among pro-survival proteins,[3]; listed as NoxaBH3,highly selective for Mcl-1 and A1
same,IC50,[3]; Mcl-1 and A1,nM range
